# According to article PMC4635624, “In vitro and in vivo single-agent efficacy of checkpoint kinase inhibition in acute lymphoblastic leukemia” (Journal of Hematology & Oncology, 2015):
# What was measured:
# leukemia cell lines = assay: PARP-1 cleavage by Western blot; type: cell-based, human; conditions: 24 h of drug exposure; undetectable with DMSO 0.1 %
# Procedure: In order to assess whether cytotoxicity was correlated to increased susceptibility to apoptosis, B-/T-ALL cell lines were incubated with increasing concentrations of drug (0.1, 0.5, and 1 μM and 0.05, 0.1, and 0.2 μM only for BV-173 and RPMI-8402, respectively) for 24 and 48 h. […] The induction of apoptosis by PF-00477736 was also assessed by the detection of poly (ADP-ribose) polymerase (PARP) cleavage by Western blot analysis.
# (§1) To gain insight into the molecular mechanisms responsible for cell death following treatment, functional analyses by Western blot were performed. Leukemia cell lines were plated in six-well plates at 500,000 cell/1 ml with increasing concentrations of drug for 24 h and incubated at 37 °C. After the treatment, the cells were collected and lysate using a specific buffer made of KH2PO4 0.1 M (pH 7.5), Igepal 1 % (NP-40), β-glicerofosfato 0.1 mM, and complete protease inhibitor cocktail 1× (Roche Diagnostics). […] Finally, all these antibodies were detected using the enhanced chemiluminescence kit ECL (GE) and the compact darkroom ChemiDoc-It (UVP).
# [1] = system: Chk1 pathway (Chk1-Cdc25-Cdc2) in BV-173 and NALM-6 cells; assay: Western blot analysis of Chk1 pathway; type: cell-based, human
# Description: In order to assess whether PF-00477736 efficiently targeted Chk1 pathway, we examined the changes in the downstream phosphorylation of the phosphatase Cdc25C and cyclin-dependent kinase, Cdc2. Moreover, Chk1 itself and γ-H2A.X, which is a marker of stalling replication forks and checkpoint abrogation-induced apoptosis, have been assessed. Functional analyses were initially performed on the most sensitive (BV-173) and the most resistant (NALM-6) B-ALL cell lines, as determined by the viability and apoptosis analyses. Specifically, BV-173 cells were treated with 0.05, 0.1, and 0.2 μM and NALM-6 with 0.1, 0.5, and 1 μM of PF-00477736 for 24 h (Fig. 3a). In the second analysis, BV-173 and NALM-6 cells were treated with the dose of PF-00477736 that goes near to the IC50 (0.1 μM for BV-173 and 1 μM for NALM-6) for 18, 24, 30, and 48 h (Fig. 3b). Thereafter, the same molecular targets have been assessed on all B- and T-ALL cell lines using the dose that goes near to the IC50 (Additional file 1: Figure S4). Active Chk1 phosphorylates Cdc25C at serine 216 throughout the interphase and upon G2 checkpoint activation. This leads to the nuclear export of Cdc25C and its subsequent cytoplasmic sequestration by 14-3-3 protein, which prevents the activation of the downstream target of Cdc25C, the cyclin B/Cdc2 kinase that is responsible for G2/M transition. […] Although the increment of the phosphorylated forms of Chk1 (Ser317 and Ser345) as a consequence of genomic damage amplification, the complete inhibition of Chk1 functionality was confirmed by the progressive reduction of the auto-phosphorylated form of Chk1 (Ser296) in an early time point analysis.
# as §1
# NALM-6 cells = conditions: NALM-6 γ-H2A.X positive cells
# Procedure: The so-called hyper-γ-H2A.X-positive cells loose the typical foci signal of γ-H2A.X and emit a much higher and diffuse signal of γ-H2A.X positivity.
# NALM-6 and BV-173 cells were seeded to poly-D lysine-coated slides, fixed with 4 % PFA (paraformaldehyde), and stained at 37 °C with a mouse anti-H2A.X-Phosphorylated Alexa 647 conjugated antibody (BioLegend). Then, they were treated with DAPI (4.6 diamidino-2-phenylindole; Sigma Aldrich), and the slides were mounted with Mowiol (Calbiochem). Images were acquired with wide field fluorescence microscope Olympus BX61 fully motorized driven by Metamorph software, and the analysis was performed using the freeware ImageJ software.
# [2] = system: RPMI-8402, BV-173, and SUP-B15 cell lines; assay: Cell cycle analysis (propidium iodide); type: cell-based, human; conditions: increasing concentrations, 24 h; concomitant increment of cell debris
# Procedure: (§2) The effect of the inhibition of Chk1 pathway on cell cycle progression was evaluated in RPMI-8402, BV-173, SUP-B15, and NALM-6 cell lines. Cells were incubated with increasing concentrations of PF-00477736 for 6 and 24 h and then stained with propidium iodide to quantify the DNA amount.
# (§3) In order to evaluate the effect of PF-00477736 on cell cycle progression, NALM-6, SUPB-15, RPMI-8402, and BV-173 cell lines were seeded in a 24-well plate at 500,000 cell/1 ml with increasing concentrations of PF-00477736 (0.1, 0.5, and 1 μM for NALM-6 and SUP-B15; 0.05, 0.1, and 0.2 μM for RPMI-8402 and BV-173). After 6 and 24 h, cells were harvested and fixed overnight using ethanol at 70 %. Then, cells were stained using PI/RNase Staining Buffer according to the manufacturer’s instruction (BD Pharmingen), and the cell cycle profile was detected using FACSCanto II instrument. The percentage of the different cell cycle phases was performed using the DNA cell-cycle analysis software for flow cytometry data, ModFit LT (Verity).
# NALM-6 cell line = assay: Cell cycle analysis (propidium iodide); type: cell-based, human; conditions: 0.1, 0.5, 1 μM, 24 h; reduced percentage of cells in G1 phase
# Procedure: as §2, §3
structure (smiles),measurement,setting,value
Cn1cc(-c2[nH]c3cc(NC(=O)[C@H](N)C4CCCCC4)cc4c3c2C=NNC4=O)cn1 [PF-00477736],PARP-1 cleavage,leukemia cell lines,PARP-1 cleavage band at 89 kDa was observed
same,phosphorylated forms of Chk1 (Ser317 and Ser345),"[1]; BV-173 0.05-0.2 μM, NALM-6 0.1-1 μM, 24 h",dose-dependently increased
same,γ-H2A.X level,"[1]; Western blot and immunofluorescence, 18, 24, 30, 48 h at dose near IC50",time-dependently increase of γ-H2A.X
same,auto-phosphorylated form of Chk1 (Ser296),"[1]; after 3 h of treatment, BV-173 and NALM-6, vs untreated",drastically reduced
same,phosphorylated Cdc25c (Ser216) and Cdc2 (Tyr 15) levels,"[1]; dose- and time-dependent, BV-173 0.05-0.2 μM, NALM-6 0.1-1 μM",decreased levels of phosphorylated Cdc25c (Ser216) and Cdc2 (Tyr 15)
same,"fold change of mean value intensity of γ-H2A.X, treated vs untreated",NALM-6 cells,1.4 fold
same,cell cycle profile,[2],progressive reduction of the number of cells in S and G2/M phase
same,cell cycle profile,NALM-6 cell line,progressively increased the percentage of cells in G2/M phase
